Test results taken from patent US20230346774A1, “METHODS OF STIMULATING AN ANTI-TUMOR RESPONSE USING A SELECTIVE GLUCOCORTICOID RECEPTOR MODULATOR” (Corcept Therapeutics Incorporated, priority 2020, published 2023).

Columns and labels:
[1] = test system: EG7 tumor cells; assay: EG7 syngeneic model in OT-1/Rag-/- mice with cortisol in drinking water
Method: The suppressive effects of cortisol on CD8+ cytotoxic T-cells, and the ability of relacorilant to promote T-cell activation, were assessed in the EG7 syngeneic mouse model. EG7 tumor cells express ovalbumin, and the model was studied both in WT or OT-1/Rag^-/- mice. The OT-1/Rag^-/- mice only have T-cells expressing a transgenic ovalbumin-specific TCR. […] The combination of PD1 antagonist antibody (RMP1-14) and relacorilant was assessed in the EG7 tumor model.

[2] = test system: stimulated human PBMC’s; assay: Activation of stimulated human PBMCs (PHA or αCD3+IL-12) +/- cortisol or cortisol + relacorilant; type: cell-based; conditions: for cytokines and chemokines (including IFNγ, IL-1β, IL-1α, IL-6): PHA or αCD3 stimulation; for cytokines and chemokines (including IFNγ, IL-1β, IL-1α, IL-6) / Expression of CD137 (aka 41-BB) on CD8+ cells: physiological cortisol; for CD3+ cell surface receptors: PHA stimulation; for inflammatory cytokines such as TNF-α: induced by stimulation; for inflammatory cytokines such as TNF-α / Expression of CD137 (aka 41-BB) on CD8+ cells: relacorilant in presence of cortisol; for CD8+ T-cell activation / pro-inflammatory cytokine secretion (TNFα, IFNγ): αCD3+IL-12; for CD8+ T-cell activation: P<0.001; for pro-inflammatory cytokine secretion (TNFα, IFNγ): TNFα P=0.006, IFNγ P<0.05
Method: To understand the molecular consequences of GC activity on T-cell activation, the effects of cortisol and relacorilant were assessed on stimulated human PBMC’s. […] Expression of CD137 (aka 41-BB) on CD8+ cells was reduced by cortisol and rescued by relacorilant. […] Expression of CD137 (aka 41-BB) within CD8+ cells was reduced by cortisol and rescued by relacorilant. […] Thus, as shown also in FIG. 4, inflammatory cytokines such as TNF-α were induced by stimulation, suppressed by cortisol, and rescued by relacorilant. […] FIG. 6A and FIG. 6B show, following stimulation by phytohemagglutinin (PHA) (FIG. 6A) or αCD3 (FIG. 6B), suppression of cytokines and chemokines by cortisol and the restoration of cytokine/chemokine levels by relacorilant. (Supernatant IL-12 measurements were excluded from the analysis shown in FIG. 6B since the stimulation included recombinant IL-12.) Physiological levels of cortisol suppressed cytokines and chemokines, and this suppression was reversed by relacorilant.
(§1) Methods: Immune cell abundance and GR expression were assessed by IHC and calculated based on The Cancer Genome Atlas (TCGA) data. Human PBMCs were stimulated with αCD3+IL-12 +/- cortisol or cortisol + relacorilant. EG7 tumor-bearing mice were treated with αPD1 (RMP1-14) ip (intraperitoneally) Q5D (every fifth day) +/- daily relacorilant (QD). Whole blood mRNA was measured via Nanostring, hematology was performed using standard complete blood count assays, and cytokines were assessed by immunoassays in study NCT02762981.

[3] = test system: EG7 tumor cells; assay: EG7 tumor model in WT mice, αPD1 (RMP1-14) +/- relacorilant; type: in vivo, mouse; conditions: for TNFα levels in terminal sera: sera collected between days 11 and 21
Method: The combination of PD1 antagonist antibody (RMP1-14) and relacorilant was assessed in the EG7 tumor model. Most reports have assessed αPD1 effects on EG7 cells in WT mice without added cortisol, so this more established model was used.
as §1

[4] = test system: healthy volunteers; assay: Phase I healthy volunteer studies (prednisone challenge); type: in vivo, human; conditions: for NLR: healthy volunteers with normal cortisol levels
From the text: (§2) GR is a broad regulator of immunosuppressive transcriptional programs, so we first assessed the transcriptional effects of prednisone in and/or relacorilant in whole blood. […] These three genes are known to play a role in suppressing the cytotoxic T-cell response.

[5] = test system: rat model of corticosterone-induced insulin resistance; assay: Rat model of corticosterone-induced insulin resistance; type: in vivo; conditions: oral, doses giving systemic exposure similar to phase I studies
[6] = test system: E.G7-OVA mouse lymphoma cells; assay: Short term (7-day) EG7 pharmacodynamic study in B6 CD45.1 mice; type: in vivo
Method: A short term (7-day) EG7 pharmacodynamic study was conducted in female B6 CD45.1 mice to assess the effects of relacorilant+ αPD1 on T-cell proliferation and activation. Spleen and portions of tumor from B6 CD45.1 female mice subcutaneously inoculated with E.G7-OVA mouse lymphoma cells and treated with CORT125134 (30 mg/kg, administered p.o. once daily for 7 days) and RMP1-14 (10 mg/kg, administered i.p. on every fifth day for a total of two doses), alone and in combination, were analyzed via flow cytometry. Unlike the previous study, cell and cytokine analyses were synchronized and occurred before differences in tumor volume were detected (FIG. 14). Thus, in this study, changes in tumor volumes cannot influence the cytokine or T-cell measurements. There were no adverse effects of the treatments on clinical signs or body weight changes.
Antigen specific T-cells are key mediators of the anti-tumor immune response. The EG7 model expresses the model antigen ovalbumin. Antigen specific T-cells can be quantified by measuring T-cells that recognize ovalbumin. Cells which bind T-cells markers (such as anti-CD3 and anti-CD8) and bind labeled ovalbumin tetramers are thus considered antigen specific T-cells. Antigen specific T-cells were increased by the combination of relacorilant + αPD1 in the spleen and tumor (FIG. 15). […]

[7] = test system: patients with advanced solid tumors; assay: Phase I study of relacorilant+nab-paclitaxel in solid tumor patients (NCT02762981); conditions: human, in vivo
Method: as §2, §1

[8] = test system: human stimulated PBMCs; assay: Restoration of TNF-α production in stimulated PBMCs suppressed by GR agonists; type: cell-based; conditions: PBMC, read-out: restoration of TNF-α production, half maximal effect
[9] = target: T1, GR (Homo sapiens, UniProt P04150); assay: GR binding; conditions: read-out: Half-maximal GR binding
T1 sequence (P04150 1-777): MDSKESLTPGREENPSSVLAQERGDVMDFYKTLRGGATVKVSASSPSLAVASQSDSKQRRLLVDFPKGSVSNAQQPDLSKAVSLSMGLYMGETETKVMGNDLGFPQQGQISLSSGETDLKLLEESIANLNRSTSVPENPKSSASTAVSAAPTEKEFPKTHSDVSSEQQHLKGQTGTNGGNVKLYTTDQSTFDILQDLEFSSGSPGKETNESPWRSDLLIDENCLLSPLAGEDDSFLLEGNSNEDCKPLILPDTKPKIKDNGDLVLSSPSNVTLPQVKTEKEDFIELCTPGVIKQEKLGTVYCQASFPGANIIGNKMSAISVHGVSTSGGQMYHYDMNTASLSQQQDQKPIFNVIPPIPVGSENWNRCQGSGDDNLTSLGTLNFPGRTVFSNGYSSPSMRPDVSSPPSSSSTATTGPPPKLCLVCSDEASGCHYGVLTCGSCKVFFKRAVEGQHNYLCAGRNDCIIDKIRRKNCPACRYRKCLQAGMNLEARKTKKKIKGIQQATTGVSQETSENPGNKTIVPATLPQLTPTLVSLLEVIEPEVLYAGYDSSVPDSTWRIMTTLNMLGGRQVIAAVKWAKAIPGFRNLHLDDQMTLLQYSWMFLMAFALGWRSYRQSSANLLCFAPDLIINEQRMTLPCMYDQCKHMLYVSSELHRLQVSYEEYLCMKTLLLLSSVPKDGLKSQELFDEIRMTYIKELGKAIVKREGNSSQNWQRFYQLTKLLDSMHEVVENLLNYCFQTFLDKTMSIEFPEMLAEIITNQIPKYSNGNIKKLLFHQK

[10] = target: T2, progesterone receptor (PR) (Homo sapiens, UniProt P06401); assay: PR binding; conditions: binding not observed at these concentrations
T2 sequence (P06401 1-933): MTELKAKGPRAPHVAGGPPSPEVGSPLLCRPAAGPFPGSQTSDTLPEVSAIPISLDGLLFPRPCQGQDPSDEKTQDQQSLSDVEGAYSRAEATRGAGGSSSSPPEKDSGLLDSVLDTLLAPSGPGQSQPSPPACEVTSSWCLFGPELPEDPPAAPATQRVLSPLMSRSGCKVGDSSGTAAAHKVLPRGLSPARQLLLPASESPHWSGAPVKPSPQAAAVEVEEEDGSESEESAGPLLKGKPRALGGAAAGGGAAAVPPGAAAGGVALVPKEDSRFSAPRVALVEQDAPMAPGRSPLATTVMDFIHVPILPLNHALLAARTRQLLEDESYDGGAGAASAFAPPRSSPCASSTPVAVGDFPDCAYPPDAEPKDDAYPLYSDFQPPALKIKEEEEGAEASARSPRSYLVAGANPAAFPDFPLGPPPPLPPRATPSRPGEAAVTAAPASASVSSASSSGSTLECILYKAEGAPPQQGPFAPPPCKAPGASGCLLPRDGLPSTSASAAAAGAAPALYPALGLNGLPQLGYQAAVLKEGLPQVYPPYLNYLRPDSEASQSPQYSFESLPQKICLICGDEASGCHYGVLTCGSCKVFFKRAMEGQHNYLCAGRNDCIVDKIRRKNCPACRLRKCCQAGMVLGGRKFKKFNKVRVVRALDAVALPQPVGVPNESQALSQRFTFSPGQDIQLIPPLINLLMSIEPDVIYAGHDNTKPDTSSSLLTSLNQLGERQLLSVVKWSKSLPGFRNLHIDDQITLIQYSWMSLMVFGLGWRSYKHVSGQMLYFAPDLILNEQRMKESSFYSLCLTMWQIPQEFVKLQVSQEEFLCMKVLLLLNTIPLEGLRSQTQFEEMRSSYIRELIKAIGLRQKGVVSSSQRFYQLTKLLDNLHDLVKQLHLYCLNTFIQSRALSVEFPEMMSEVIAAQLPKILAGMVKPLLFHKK

[11] = target: T1, GR; assay: GR inverse agonism
[12] = test system: patients with Cushing’s disease; assay: Phase II study in patients with Cushing’s disease; type: in vivo, human

## cortisol
[1]; OT-1/Rag-/- mice
  mice with measurable tumors by day 10: All mice
  tumor growth: rapid tumor growth
[1]; OT-1/Rag-/- mice given cortisol +/- relacorilant
  histologically confirmed complete remissions: none
[1]; OT-1/Rag-/- mice, 0/5 in controls
  Premature deaths: 2/5
[2]; 400 nM cortisol, PHA or αCD3+IL-12
  phenotypic effects of stimulation: potently suppressed nearly every phenotypic effect of stimulation
[2]
  cytokines and chemokines (including IFNγ, IL-1β, IL-1α, IL-6): suppressed
  CD3+ cell surface receptors: suppression
  inflammatory cytokines such as TNF-α: suppressed
  Expression of CD137 (aka 41-BB) on CD8+ cells: reduced
  CD8+ T-cell activation: inhibited
  pro-inflammatory cytokine secretion (TNFα, IFNγ): inhibited
[3]; cortisol added to relacorilant treatment
  tumor growth on excess cortisol administration: restored tumor growth
[3]; cortisol in drinking water of wild type (WT) mice
  tumor control or growth: no effect on tumor control or growth
[3]
  TNFα levels in terminal sera: suppressed

## Cn1cc(S(=O)(=O)N2CCC3=Cc4c(cnn4-c4ccc(F)cc4)C[C@]3(C(=O)c3cc(C(F)(F)F)ccn3)C2)cn1 [relacorilant, (R)-(1-(4-fluorophenyl)-6-((1-methyl-1H-pyrazol-4-yl)sulfonyl)-4,4a,5,6,7,8-hexahydro-1H-pyrazolo[3,4-g]isoquinolin-4a-yl)(4-(trifluoromethyl)pyridin-2-yl)methanone]
[4]; healthy volunteers
  tolerability: demonstrated tolerability
[4]
  NLR: does not affect NLR
[4]; prednisone challenge
  GR agonist induction of FKBP5 mRNA in whole blood: reversed
  GR agonist suppression of eosinophil abundance in whole blood: reversed
[4]; relacorilant co-dosed with prednisone
  prednisone-induced increase in the NLR: reversed
[5]
  glucose and insulin: normalized glucose and insulin
[6]; 7 days
  PD1 expression in splenic CD8 T-cells: sufficient to induce
[6]; vs Vehicle Control
  PD-1+ as % CD8+ cells in spleens: significant (p≤0.05) increase
[7]
  NLR in cancer patients with elevated baseline NLR: lowers
[8]
  EC50: 9 nM
[2]
  cytokines and chemokines (including IFNγ, IL-1β, IL-1α, IL-6): reversed
  CD3+ cell surface receptors: restoration
  inflammatory cytokines such as TNF-α: rescued
  Expression of CD137 (aka 41-BB) on CD8+ cells: rescued
  CD8+ T-cell activation: restored
  pro-inflammatory cytokine secretion (TNFα, IFNγ): restored
[3]; P<0.002
  circulating IL-10: decreased
[3]; P=0.007
  αPD1 efficacy: increased
[3]; WT mice without added cortisol
  effect on tumor growth: no significant effect
[3]
  TNFα levels in terminal sera: increased
[9]
  IC50: 0.15 nM
[10]
  IC50: > 1000 nM
[11]
  GR inverse agonism: not observed
[12]
  effects of excess cortisol on hypertension and insulin resistance: demonstrated the ability to reverse

## C[C@]12C=CC(=O)C=C1CC[C@@H]1[C@@H]2C(=O)C[C@@]2(C)[C@H]1CC[C@]2(O)C(=O)CO [prednisone, reference compound]
[4]; 25 mg dose, 4 hours post dose
  transcriptional effect in whole blood: large transcriptional effect
[4]
  NLR: rapid an acute increase
